Literature values as cited in US6457474B1, “Method of treating chest pain” (priority 1997, dated 2002).

Legend:
[1] = after the tablet has dissolved under the tongue

What does the source list for O=[N+]([O-])OCC(CO[N+](=O)[O-])O[N+](=O)[O-] [nitroglycerin]?
systemic bioavailability (after oral administration): rather low; plasma levels (high oral doses): erratic; time for the angina attack to go away [1]: approximately five
